Experimental data: patent publication US11395821B2, “Treatment of EGFR-driven cancer with fewer side effects” (G1 Therapeutics, Inc., priority 2017, dated 2022)

Experiment: G1T38-02: G1T38-related TEAEs by CTCAE grade; on G1T38-related TEAE: Alopecia: test concentration or dose not given here; on G1T38-related TEAE: Anaemia: test concentration or dose not given here; on G1T38-related TEAE: Blood bilirubin increased: test concentration or dose not given here; on G1T38-related TEAE: Blood creatinine increased: test concentration or dose not given here; on G1T38-related TEAE: Blood urea increased: test concentration or dose not given here; on G1T38-related TEAE: Diarrhoea: test concentration or dose not given here; on G1T38-related TEAE: Dry eye: test concentration or dose not given here; on G1T38-related TEAE: Dry mouth: test concentration or dose not given here; on G1T38-related TEAE: Haematuria: test concentration or dose not given here; on G1T38-related TEAE: Lacrimation increased: test concentration or dose not given here; on G1T38-related TEAE: Monocyte count decreased: test concentration or dose not given here; on G1T38-related TEAE: Nausea: test concentration or dose not given here; on G1T38-related TEAE: Neutropenia: test concentration or dose not given here; on G1T38-related TEAE: Platelet count decreased: test concentration or dose not given here; on G1T38-related TEAE: Stomatitis: test concentration or dose not given here; on G1T38-related TEAE: Thombocytopenia: test concentration or dose not given here
Format: in vivo, Humans
Conditions: for G1T38-related TEAE: Alopecia / G1T38-related TEAE: Anaemia / G1T38-related TEAE: Blood bilirubin increased / G1T38-related TEAE: Blood creatinine increased / G1T38-related TEAE: Blood lactate dehydrogenase increased / G1T38-related TEAE: Blood urea increased / G1T38-related TEAE: Diarrhoea / G1T38-related TEAE: Dry eye / G1T38-related TEAE: Dry mouth / G1T38-related TEAE: Haematuria / G1T38-related TEAE: Lacrimation increased / G1T38-related TEAE: Leukopenia / G1T38-related TEAE: Monocyte count decreased / G1T38-related TEAE: Nausea / G1T38-related TEAE: Neutropenia / G1T38-related TEAE: Neutrophil count deceased / G1T38-related TEAE: Platelet count decreased / G1T38-related TEAE: Stomatitis / G1T38-related TEAE: Thombocytopenia / G1T38-related TEAE: Vomiting / G1T38-related TEAE: White blood cell count decreased / Number (%) of patients with any G1T38-related TEAEs: N = 18

**Q.** Which results are given for `CC(C)N1CCN(c2ccc(Nc3ncc4cc5n(c4n3)C3(CCCCC3)CNC5=O)nc2)CC1` [Compound IV]?
**A.** G1T38-related TEAE: Alopecia (Grade 1-2): 1 (5.6) n (%); G1T38-related TEAE: Anaemia (Grade 1-2): 6 (33.3) n (%); G1T38-related TEAE: Blood bilirubin increased (Grade 1-2): 1 (5.6) n (%); G1T38-related TEAE: Blood creatinine increased (Grade 1-2): 2 (11.1) n (%); G1T38-related TEAE: Blood lactate dehydrogenase increased (Grade 1-2): 1 (5.6) n (%); G1T38-related TEAE: Blood urea increased (Grade 1-2): 1 (5.6) n (%); G1T38-related TEAE: Diarrhoea (Grade 1-2): 5 (27.8) n (%); G1T38-related TEAE: Dry eye (Grade 1-2): 1 (5.6) n (%); G1T38-related TEAE: Dry mouth (Grade 1-2): 1 (5.6) n (%); G1T38-related TEAE: Haematuria (Grade 1-2): 3 (16.7) n (%); G1T38-related TEAE: Lacrimation increased (Grade 1-2): 1 (5.6) n (%); G1T38-related TEAE: Leukopenia (Grade 1-2): 1 (5.6) n (%); G1T38-related TEAE: Monocyte count decreased (Grade 1-2): 1 (5.6) n (%); G1T38-related TEAE: Nausea (Grade 1-2): 5 (27.8) n (%); G1T38-related TEAE: Neutropenia (Grade 1-2): 3 (16.7) n (%); G1T38-related TEAE: Neutrophil count deceased (Grade 1-2): 7 (38.9) n (%); G1T38-related TEAE: Platelet count decreased (Grade 1-2): 2 (11.1) n (%); G1T38-related TEAE: Stomatitis (Grade 1-2): 1 (5.6) n (%); G1T38-related TEAE: Thombocytopenia (Grade 1-2): 1 (5.6) n (%); G1T38-related TEAE: Vomiting (Grade 1-2): 3 (16.7) n (%); G1T38-related TEAE: White blood cell count decreased (Grade 1-2): 7 (38.9) n (%); Number (%) of patients with any G1T38-related TEAEs (Grade 1-2): 11 (61.1) n (%); G1T38-related TEAE: Alopecia (Grade 3): 0 n (%); G1T38-related TEAE: Anaemia (Grade 3): 0 n (%); G1T38-related TEAE: Blood bilirubin increased (Grade 3): 0 n (%); G1T38-related TEAE: Blood creatinine increased (Grade 3): 0 n (%); G1T38-related TEAE: Blood lactate dehydrogenase increased (Grade 3): 0 n (%); G1T38-related TEAE: Blood urea increased (Grade 3): 0 n (%); G1T38-related TEAE: Diarrhoea (Grade 3): 0 n (%); G1T38-related TEAE: Dry eye (Grade 3): 0 n (%); G1T38-related TEAE: Dry mouth (Grade 3): 0 n (%); G1T38-related TEAE: Haematuria (Grade 3): 0 n (%); G1T38-related TEAE: Lacrimation increased (Grade 3): 0 n (%); G1T38-related TEAE: Leukopenia (Grade 3): 0 n (%); G1T38-related TEAE: Monocyte count decreased (Grade 3): 0 n (%); G1T38-related TEAE: Nausea (Grade 3): 0 n (%); G1T38-related TEAE: Neutropenia (Grade 3): 1 (5.6) n (%); G1T38-related TEAE: Neutrophil count deceased (Grade 3): 2 (11.1) n (%); G1T38-related TEAE: Platelet count decreased (Grade 3): 0 n (%); G1T38-related TEAE: Stomatitis (Grade 3): 0 n (%); G1T38-related TEAE: Thombocytopenia (Grade 3): 0 n (%); G1T38-related TEAE: Vomiting (Grade 3): 0 n (%); G1T38-related TEAE: White blood cell count decreased (Grade 3): 0 n (%); Number (%) of patients with any G1T38-related TEAEs (Grade 3): 3 (16.7) n (%); G1T38-related TEAE: Alopecia (Grade 4): 0 n (%); G1T38-related TEAE: Anaemia (Grade 4): 0 n (%); G1T38-related TEAE: Blood bilirubin increased (Grade 4): 0 n (%); G1T38-related TEAE: Blood creatinine increased (Grade 4): 0 n (%); G1T38-related TEAE: Blood lactate dehydrogenase increased (Grade 4): 0 n (%); G1T38-related TEAE: Blood urea increased (Grade 4): 0 n (%); G1T38-related TEAE: Diarrhoea (Grade 4): 0 n (%); G1T38-related TEAE: Dry eye (Grade 4): 0 n (%); G1T38-related TEAE: Dry mouth (Grade 4): 0 n (%); G1T38-related TEAE: Haematuria (Grade 4): 0 n (%); G1T38-related TEAE: Lacrimation increased (Grade 4): 0 n (%); G1T38-related TEAE: Leukopenia (Grade 4): 0 n (%); G1T38-related TEAE: Monocyte count decreased (Grade 4): 0 n (%); G1T38-related TEAE: Nausea (Grade 4): 0 n (%); G1T38-related TEAE: Neutropenia (Grade 4): 1 (5.0) n (%); G1T38-related TEAE: Neutrophil count deceased (Grade 4): 0 n (%); G1T38-related TEAE: Platelet count decreased (Grade 4): 0 n (%); G1T38-related TEAE: Stomatitis (Grade 4): 0 n (%); G1T38-related TEAE: Thombocytopenia (Grade 4): 0 n (%); G1T38-related TEAE: Vomiting (Grade 4): 0 n (%); G1T38-related TEAE: White blood cell count decreased (Grade 4): 0 n (%); Number (%) of patients with any G1T38-related TEAEs (Grade 4): 1 (5.6) n (%); G1T38-related TEAE: Alopecia (Grade 5): 0 n (%); G1T38-related TEAE: Anaemia (Grade 5): 0 n (%); G1T38-related TEAE: Blood bilirubin increased (Grade 5): 0 n (%); G1T38-related TEAE: Blood creatinine increased (Grade 5): 0 n (%); G1T38-related TEAE: Blood lactate dehydrogenase increased (Grade 5): 0 n (%); G1T38-related TEAE: Blood urea increased (Grade 5): 0 n (%); G1T38-related TEAE: Diarrhoea (Grade 5): 0 n (%); G1T38-related TEAE: Dry eye (Grade 5): 0 n (%); G1T38-related TEAE: Dry mouth (Grade 5): 0 n (%); G1T38-related TEAE: Haematuria (Grade 5): 0 n (%); G1T38-related TEAE: Lacrimation increased (Grade 5): 0 n (%); G1T38-related TEAE: Leukopenia (Grade 5): 0 n (%); G1T38-related TEAE: Monocyte count decreased (Grade 5): 0 n (%); G1T38-related TEAE: Nausea (Grade 5): 0 n (%); G1T38-related TEAE: Neutropenia (Grade 5): 0 n (%); G1T38-related TEAE: Neutrophil count deceased (Grade 5): 0 n (%); G1T38-related TEAE: Platelet count decreased (Grade 5): 0 n (%); G1T38-related TEAE: Stomatitis (Grade 5): 0 n (%); G1T38-related TEAE: Thombocytopenia (Grade 5): 0 n (%); G1T38-related TEAE: Vomiting (Grade 5): 0 n (%); G1T38-related TEAE: White blood cell count decreased (Grade 5): 0 n (%); Number (%) of patients with any G1T38-related TEAEs (Grade 5): 0 n (%); G1T38-related TEAE: Alopecia (Overall): 1 (5.6) n (%); G1T38-related TEAE: Anaemia (Overall): 6 (33.3) n (%); G1T38-related TEAE: Blood bilirubin increased (Overall): 1 (5.6) n (%); G1T38-related TEAE: Blood creatinine increased (Overall): 2 (11.1) n (%); G1T38-related TEAE: Blood lactate dehydrogenase increased (Overall): 1 (5.6) n (%); G1T38-related TEAE: Blood urea increased (Overall): 1 (5.6) n (%); G1T38-related TEAE: Diarrhoea (Overall): 5 (27.8) n (%); G1T38-related TEAE: Dry eye (Overall): 1 (5.6) n (%); G1T38-related TEAE: Dry mouth (Overall): 1 (5.6) n (%); G1T38-related TEAE: Haematuria (Overall): 3 (16.7) n (%); G1T38-related TEAE: Lacrimation increased (Overall): 1 (5.6) n (%); G1T38-related TEAE: Leukopenia (Overall): 1 (5.6) n (%); G1T38-related TEAE: Monocyte count decreased (Overall): 1 (5.6) n (%); G1T38-related TEAE: Nausea (Overall): 5 (27.8) n (%); G1T38-related TEAE: Neutropenia (Overall): 5 (27.8) n (%); G1T38-related TEAE: Neutrophil count deceased (Overall): 9 (50.0) n (%); G1T38-related TEAE: Platelet count decreased (Overall): 2 (11.1) n (%); G1T38-related TEAE: Stomatitis (Overall): 1 (5.6) n (%); G1T38-related TEAE: Thombocytopenia (Overall): 1 (5.6) n (%); G1T38-related TEAE: Vomiting (Overall): 3 (16.7) n (%); G1T38-related TEAE: White blood cell count decreased (Overall): 7 (38.9) n (%); Number (%) of patients with any G1T38-related TEAEs (Overall): 15 (83.3) n (%); more severe EGFR-TKI-related AEs (nonclinical and clinical data to date (see Example 6)): none of the more severe EGFR-TKI-related AEs have been observed
